Reference: patent US4820694A, “Modifications of 3-O-demethylmycinose in macrocin and lactenocin” (priority 1986, dated 1989)
≈ marks a conversion by molar mass, not a printed value. Where two headings read alike, the source gives them in different places.

Key:
[1] = tested on: Streptococcus Group D X66; test: standard agar-dilution MIC assay; assay type: cell-based; settings: read-out: MIC
Protocol: (§1) The MIC's in Table III were determined by standard agar-dilution assays. The MIC's in Table IV were obtained using conventional brothdilution microtiter tests.

[2] = tested on: Streptococcus Group D 9960; test: standard agar-dilution MIC assay; assay type: cell-based; settings: GROUPD9960, read-out: MIC
Protocol: as §1

[3] = tested on: Staphylococcus epidermidis 222; test: standard agar-dilution MIC assay; assay type: cell-based; settings: Staphylococcus epidermidis, 222
Protocol: as §1

[4] = tested on: Klebsiella pneumoniae X68; test: standard agar-dilution MIC assay; assay type: cell-based; settings: Klebsiella pneumoniae, X68
Protocol: as §1

[5] = tested on: Pseudomonas aeruginosa X239; test: standard agar-dilution MIC assay; assay type: cell-based; settings: Pseudomonas aeruginosa, X239
Protocol: as §1

[6] = tested on: Haemophilus influenzae 76; test: standard agar-dilution MIC assay; assay type: cell-based; settings: Haemophilus influenzae, 76
Protocol: as §1

[7] = tested on: Staphylococcus aureus X1.1; test: standard agar-dilution MIC assay; assay type: cell-based; settings: Staphylococcus aureus, X1.1
Protocol: as §1

[8] = tested on: Haemophilus influenzae C.L.; test: standard agar-dilution MIC assay; assay type: cell-based; settings: Haemophilus influenzae
Protocol: as §1

[9] = tested on: Staphylococcus aureus X400; test: standard agar-dilution MIC assay; assay type: cell-based; settings: Staphylococcus aureus, X400
Protocol: as §1

[10] = tested on: Streptococcus pyogenes C203; test: standard agar-dilution MIC assay; assay type: cell-based; settings: Streptococcus pyogenes, C203
Protocol: as §1

[11] = tested on: Staphylococcus aureus V41; test: standard agar-dilution MIC assay; assay type: cell-based; settings: Staphylococcus aureus, V41
Protocol: as §1

Escherichia coli EC14 = test: standard agar-dilution MIC assay; assay type: cell-based
Protocol: as §1

[12] = tested on: Staphylococcus epidermidis EPI1; test: standard agar-dilution MIC assay; assay type: cell-based; settings: Staphylococcus epidermidis, EPI1
Protocol: as §1

[13] = tested on: Streptococcus pneumoniae Park I; test: microbe, parasite or virus in culture; assay type: cell-based; settings: Streptococcus pneumoniae
Protocol: as §1

[14] = tested on: Staphylococcus aureus S13E; test: microbe, parasite or virus in culture; assay type: cell-based; settings: Staphylococcus aureus, S13E
Protocol: as §1

[15] = tested on: Streptococcus pyogenes C203; test: protection of mice experimentally infected with S. pyogenes C203; assay type: in vivo
Protocol: The formula 1 compounds have shown in vivo antimicrobial activity against experimentally-induced infections in laboratory animals. When two doses of test compound were administered to mice experimentally infected with S. pyrogenes C203, the activity observed was measured as an ED50 value [effective dose in mg/kg to protect 50% of the test animals: see Warren Wick, et al., J. Bacteriol. 81, 233-235 (1961)].
^a mg/kg × 2; doses given 1 and 4 hours postinfection

[16] = tested on: Mycoplasma gallisepticum 29C; test: broth-dilution microtiter MIC test; assay type: cell-based; settings: Mycoplasmoides gallisepticum, 29C
Protocol: as §1

[17] = tested on: Staphylococcus aureus 19C; test: broth-dilution microtiter MIC test; assay type: cell-based; settings: Staphylococcus aureus, 19C
Protocol: as §1

[18] = tested on: Mycoplasma gallisepticum 36H; test: broth-dilution microtiter MIC test; assay type: cell-based; settings: Mycoplasmoides gallisepticum, 36H
Protocol: as §1

[19] = tested on: Pasteurella multocida 60A; test: broth-dilution microtiter MIC test; assay type: cell-based; settings: Pasteurella multocida, 60A
Protocol: as §1

[20] = tested on: Mycoplasma gallisepticum 15E; test: broth-dilution microtiter MIC test; assay type: cell-based; settings: Mycoplasmoides gallisepticum, 15E
Protocol: as §1

Mycoplasma synoviae 40A = test: broth-dilution microtiter MIC test; assay type: cell-based; settings: Mycoplasmopsis synoviae, 40A
Protocol: as §1

Mycoplasma hyorhinis 29E = test: broth-dilution microtiter MIC test; assay type: cell-based; settings: Mycoplasma, 29E
Protocol: as §1

[21] = tested on: Pasteurella hemolytica 22C; test: broth-dilution microtiter MIC test; assay type: cell-based; settings: Pasteurella, 22C
Protocol: as §1

[22] = tested on: Pasteurella multocida 40G; test: broth-dilution microtiter MIC test; assay type: cell-based; settings: Pasteurella multocida, 40G
Protocol: as §1

[23] = tested on: Pasteurella hemolytica 41D; test: broth-dilution microtiter MIC test; assay type: cell-based; settings: Pasteurella, 41D
Protocol: as §1

[24] = tested on: Pasteurella hemolytica 23C; test: broth-dilution microtiter MIC test; assay type: cell-based; settings: Pasteurella, 23C
Protocol: as §1

[25] = tested on: Pasteurella multocida 17E; test: broth-dilution microtiter MIC test; assay type: cell-based; settings: Pasteurella multocida, 17E
Protocol: as §1

Streptococcus sp. 19F = test: broth-dilution microtiter MIC test; assay type: cell-based; settings: Streptococcus, SP.19F
Protocol: as §1

[26] = tested on: Bordetella bronchiseptica; test: broth-dilution microtiter MIC test; assay type: cell-based; settings: Bordetella bronchiseptica
Protocol: as §1

[27] = tested on: Pasteurella multocida 68C; test: broth-dilution microtiter MIC test; assay type: cell-based; settings: Pasteurella multocida, 68C
Protocol: as §1

[28] = tested on: Pasteurella multocida 22A; test: broth-dilution microtiter MIC test; assay type: cell-based; settings: Pasteurella multocida, 22A
Protocol: as §1

| Structure (SMILES) | MIC [1] | MIC [2] | MIC [3] | MIC [6] | MIC [7] | MIC [8] | MIC [9] | MIC [10] | MIC [11] | MIC [12] | MIC [13] | MIC [14] | MIC [16] | MIC [17] | MIC [18] | MIC [19] | MIC [20] | MIC (Mycoplasma synoviae 40A) | MIC (Mycoplasma hyorhinis 29E) | MIC [21] | also measured |
| --- | --- | --- | --- | --- | --- | --- | --- | --- | --- | --- | --- | --- | --- | --- | --- | --- | --- | --- | --- | --- | --- |
| CCC1OC(=O)CC(O)C(C)C(OC2OC(C)C(O)C(N(C)C)C2O)C(CC=O)CC(C)C(=O)C=CC(C)=CC1COC1OC(C)C(O)C(OC(=O)Cc2ccccc2)C1OC (centres unmarked) [Compound 32, 3"-O-Phenylacetyl-lactenocin] | 1 µg/mL (≈ 1.14 µM) | 1 µg/mL (≈ 1.14 µM) | 0.25 µg/mL (≈ 0.285 µM) | 8 µg/mL (≈ 9.13 µM) | 0.5 µg/mL (≈ 0.571 µM) | 8 µg/mL (≈ 9.13 µM) | 2 µg/mL (≈ 2.28 µM) | 0.25 µg/mL (≈ 0.285 µM) | 1 µg/mL (≈ 1.14 µM) | 0.5 µg/mL (≈ 0.571 µM) | 0.5 µg/mL (≈ 0.571 µM) | 1 µg/mL (≈ 1.14 µM) | 0.195 µg/mL (≈ 0.223 µM) | 1.56 µg/mL (≈ 1.78 µM) | 25 µg/mL (≈ 28.5 µM) | 25 µg/mL (≈ 28.5 µM) | 12.5 µg/mL (≈ 14.3 µM) | 1.56 µg/mL (≈ 1.78 µM) | 1.56 µg/mL (≈ 1.78 µM) | 25 µg/mL (≈ 28.5 µM) | MIC [4]: > 128 µg/mL; MIC [5]: > 128 µg/mL; MIC (Escherichia coli EC14): > 128 µg/mL; ED50 ([15]; C203, sc): 4.4 mg/kg; MIC [22]: 25 µg/mL (≈ 28.5 µM); MIC [23]: 25 µg/mL (≈ 28.5 µM); MIC [24]: 25 µg/mL (≈ 28.5 µM); MIC [25]: 25 µg/mL (≈ 28.5 µM); MIC (Streptococcus sp. 19F): 1.56 µg/mL (≈ 1.78 µM); MIC [26]: > 50 µg/mL; MIC [27]: 12.5 µg/mL (≈ 14.3 µM); MIC [28]: 25 µg/mL (≈ 28.5 µM) |
| CCC1OC(=O)CC(O)C(C)C(OC2OC(C)C(O)C(N(C)C)C2O)C(CC=O)CC(C)C(=O)C=CC(C)=CC1COC1OC(C)C(OC(=O)COc2ccccc2)C(OC(=O)COc2ccccc2)C1OC (centres unmarked) [Compound 36, 3",4"-Di-O-phenoxyacetyl-lactenocin] | 2 µg/mL (≈ 1.95 µM) | 2 µg/mL (≈ 1.95 µM) | 0.5 µg/mL (≈ 0.487 µM) | 32 µg/mL (≈ 31.2 µM) | 2 µg/mL (≈ 1.95 µM) | 32 µg/mL (≈ 31.2 µM) | 2 µg/mL (≈ 1.95 µM) | 0.5 µg/mL (≈ 0.487 µM) | 2 µg/mL (≈ 1.95 µM) | 2 µg/mL (≈ 1.95 µM) | 1 µg/mL (≈ 0.974 µM) | 2 µg/mL (≈ 1.95 µM) | 0.39 µg/mL (≈ 0.38 µM) | 1.56 µg/mL (≈ 1.52 µM) | 12.5 µg/mL (≈ 12.2 µM) | 50 µg/mL (≈ 48.7 µM) | 12.5 µg/mL (≈ 12.2 µM) | 1.56 µg/mL (≈ 1.52 µM) | 6.25 µg/mL (≈ 6.09 µM) | 50 µg/mL (≈ 48.7 µM) | MIC ([4]; agar-dilution, read-out: MIC): > 128 µg/mL; MIC ([5]; agar-dilution, read-out: MIC): > 128 µg/mL; MIC (Escherichia coli EC14; agar-dilution, read-out: MIC): > 128 µg/mL; ED50 ([15]; C203, Oral, mice, mg/kg × 2, doses given 1 and 4 hours postinfection, read-out: ED50): > 100 mg/kg; ED50 ([15]; C203, sc, Subcutaneous, mice, mg/kg × 2, doses given 1 and 4 hours postinfection, read-out: ED50): 4.3 mg/kg; MIC [22]: 50 µg/mL (≈ 48.7 µM); MIC [23]: 25 µg/mL (≈ 24.4 µM); MIC [24]: 25 µg/mL (≈ 24.4 µM); MIC [25]: 50 µg/mL (≈ 48.7 µM); MIC (Streptococcus sp. 19F): 0.78 µg/mL (≈ 0.76 µM); MIC ([26]; broth-dilution microtiter, read-out: MIC): > 50 µg/mL; MIC [27]: 25 µg/mL (≈ 24.4 µM); MIC [28]: 50 µg/mL (≈ 48.7 µM) |
